Molecular target: Arf6 (Homo sapiens (Human), UniProt P62330)
Assay: Fluorometric assay for Arf6 nucleotide exchange catalyzed by ARNO Sec7 domain (GTP-BODIPY FL)
Assay type: biochemical
Details: 20 nM Arf6 assay; read-out: IC50 (μM) 20 nM Arf6
Description: FIGS. 1A-1D: Fluorometric high throughput assay for Arf6 nucleotide exchange catalyzed by ARNO Sec7 domain. FIG. 1A: Principle of the assay. FIG. 1B: SDS-PAGE analysis of N-terminally His-tagged Arf6(14-175) and ARNO(50-255) purified from the E. coli cultures by immobilized metal affinity chromatography. FIG. 1C: Correlation between signal intensity and ARNO concentration. The assay was performed using 50 mM Tris-HCl, pH 7.5, 1 mM MgCl2, 0.01% TX-100, 1% DMSO, 50 nM GTP-BODIPY FL, supplemented with ARNO-Sec7 at indicated concentrations in the absence or in the presence of 0.2 μM Arf6-GDP. Fluorescence intensities were monitored using a Synergy 4 plate reader (BioTek) at the excitation and emission wavelengths of 490 nm and 520 nm, respectively. FIG. 1D: Time course of apparent inhibitory potency of GDP. The assay was performed in automated mode using a Matrix PlateMate liquid handler.
The primary biochemical assay uses a fluorometric assay for monitoring the replacement of bound nucleotide with a fluorogenic GTP derivative bearing a BODIPY FL moiety, allowing for the identification of compounds that can inhibit this exchange (see FIG. 1A). In certain embodiments, the methods disclosed herein may exploit the reduction of intramolecular fluorescence quenching of the modified nucleotide upon its binding to the target protein (see, e.g., McEwen D P, Gee K R, Kang H C, Neubig R R. Fluorescent BODIPY-GTP analogs: real-time measurement of nucleotide binding to G proteins. Anal Biochem. 2001 Apr. 1; 291(1): 109-17).
The fluorometric assay formatted for 96-well microtiter plates has passed quality control based on the following criteria: i) S/B ratio of 4-fold and Z′-factor of 0.61; ii) linear correlation between signal intensity and ARNO concentration (see FIG. 1C); iii) sufficiently reproducible inhibitory effects of the reference inhibitor GDP for assay durations up to at least 1 hour (see FIG. 1D); and iv) lack of apparent fluorescence quenchers among 400 randomly selected compounds. The assay is amenable to automation with a throughput of approximately 5,000 data points per 8 hours.

Arf6, sequence (P62330 14-175): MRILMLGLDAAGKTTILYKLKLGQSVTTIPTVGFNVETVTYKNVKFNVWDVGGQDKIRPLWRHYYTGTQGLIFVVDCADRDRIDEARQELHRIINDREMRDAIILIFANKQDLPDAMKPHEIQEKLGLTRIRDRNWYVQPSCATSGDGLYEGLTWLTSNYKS

SMILES	IC50
CCC(=O)Nc1cccc(-c2cc(=O)n3nc(C(F)(F)F)c(-c4ccc(Cl)cc4)c3[nH]2)c1 [Compound 61]	3.3 µM
O=c1cc(-c2ccccc2Br)[nH]c2c(-c3ccc(Cl)cc3)c(C(F)(F)F)nn12 [Compound 62]	3.3 µM
O=c1cc(-c2ccc([N+](=O)[O-])cc2)[nH]c2c(-c3ccc(Cl)cc3)c(CC3CCOCC3)nn12 [Compound 63]	3.6 µM
NC(=O)c1ccc(-c2cc(=O)n3nc(Cc4ccccc4)c(-c4ccc(Cl)cc4)c3[nH]2)cc1 [Compound 66]	3.7 µM
CC(=O)Nc1ccc(-c2cc(=O)n3nc(C(F)(F)F)c(-c4ccc(Cl)cc4)c3[nH]2)cc1 [Compound 67]	3.7 µM
Cc1nn2c(=O)cc(-c3ccc(NS(=O)(=O)Cc4ccccc4)cc3)[nH]c2c1-c1ccc(Cl)cc1 [Compound 68]	3.8 µM
Cc1nc2c(=O)[nH]c(-c3ccc([N+](=O)[O-])cc3)nn2c1-c1ccc(Cl)cc1 [Compound 69]	4 µM
Cc1nn2c(=O)cc(-c3cccc(-c4ccncc4)c3)[nH]c2c1-c1ccc(Cl)cc1 [Compound 70]	4.1 µM
COC(=O)c1ccc(-c2cc(=O)n3nc(C4CC4)c(-c4ccc(Cl)cc4)c3[nH]2)cc1 [Compound 71]	4.1 µM
O=c1cc(-c2ccc([N+](=O)[O-])cc2)[nH]c2c(-c3ccccc3)c(C(F)(F)F)nn12 [Compound 72]	4.2 µM
Cc1nn2c(=O)cc(-c3ccc([N+](=O)[O-])cc3)[nH]c2c1-c1ccc(Cl)c(F)c1 [Compound 73]	4.2 µM
CC(=O)Nc1cccc(-c2cc(=O)n3nc(C(F)(F)F)c(-c4ccc(Cl)cc4)c3[nH]2)c1 [Compound 74]	4.3 µM
COCC(=O)Nc1ccc(-c2cc(=O)n3nc(C(F)(F)F)c(-c4ccc(Cl)cc4)c3[nH]2)cc1 [Compound 75]	4.4 µM
Cc1nn2c(=O)cc(-c3ccc([N+](=O)[O-])cc3)[nH]c2c1-c1ccc(Cl)cc1Cl [Compound 76]	4.5 µM
O=c1cc(-c2ccc([N+](=O)[O-])cc2)[nH]c2c(-c3ccc(Cl)cc3)c(C3CCOCC3)nn12 [Compound 77]	5.1 µM
Nc1ccc(-c2cc(=O)n3nc(C(F)(F)F)c(-c4ccc(Cl)cc4)c3[nH]2)cc1 [Compound 78]	5.2 µM
N#Cc1cccc(-c2cc(=O)n3nc(C4CC4)c(-c4ccc(Cl)cc4)c3[nH]2)c1 [Compound 79]	5.5 µM
O=c1cc(-c2ccc([N+](=O)[O-])cc2)[nH]c2c(-c3ccc(Cl)cc3)c(CN3CCOCC3)nn12 [Compound 80]	5.9 µM
Cc1nn2c(=O)cc(-c3ccc([N+](=O)[O-])cc3)[nH]c2c1Cc1ccc(Cl)cc1 [Compound 81]	6 µM
CC(C)(C)c1nn2c(=O)cc(-c3ccccn3)[nH]c2c1-c1ccc(Cl)cc1 [Compound 82]	6 µM
CC(C)(C)c1nn2c(=O)cc(-c3cccnc3)[nH]c2c1-c1ccc(Cl)cc1 [Compound 84]	6.4 µM
CC(C)(C)c1nn2c(=O)cc(-c3cccc(C(N)=O)c3)[nH]c2c1-c1ccc(Cl)cc1 [Compound 85]	6.6 µM
CC(C)(C)c1nn2c(=O)cc(-c3cccc(C(=O)O)c3)[nH]c2c1-c1ccc(Cl)cc1 [Compound 86]	6.6 µM
CC(C)(C)c1nn2c(=O)cc(-c3cccc(S(C)(=O)=O)c3)[nH]c2c1-c1ccc(Cl)cc1 [Compound 87]	6.7 µM
Nc1cccc(-c2cc(=O)n3nc(C(F)(F)F)c(-c4ccc(Cl)cc4)c3[nH]2)c1 [Compound 88]	7 µM
O=c1cc(-c2ccc([N+](=O)[O-])cc2)[nH]c2c(-c3ccc(Cl)cc3)c(CO)nn12 [Compound 90]	7.8 µM

SMILES	IC50
CS(=O)(=O)c1ccc(-c2cc(=O)n3nc(C4CC4)c(-c4ccc(Cl)cc4)c3[nH]2)cc1 [Compound 91]	7.9 µM
O=C(O)c1ccccc1-c1cc(=O)n2nc(C(F)(F)F)c(-c3ccc(Cl)cc3)c2[nH]1 [Compound 92]	8.1 µM
Cc1nn2c(=O)cc(-c3ccc(F)cc3)[nH]c2c1-c1ccc(Cl)cc1 [Compound 93]	8.2 µM
Cc1nn2c(=O)cc(-c3ccc([N+](=O)[O-])cc3)[nH]c2c1-c1ccc(S(C)(=O)=O)cc1 [Compound 94]	8.8 µM
CCS(=O)(=O)Nc1ccc(-c2cc(=O)n3nc(C)c(-c4ccc(Cl)cc4)c3[nH]2)cc1 [Compound 96]	10 µM
CCNC(=O)Nc1ccc(-c2cc(=O)n3nc(C)c(-c4ccc(Cl)cc4)c3[nH]2)cc1 [Compound 97]	11 µM
Cc1c(Cc2ccccc2)nn2c(=O)cc(-c3ccc([N+](=O)[O-])cc3)[nH]c12 [Compound 98]	11 µM
O=[N+]([O-])c1ccc(C2=CC(O)n3nc(-c4cccc(Cl)c4)cc3N2)cc1 (centres unmarked) [Compound 100]	13 µM
Cc1nn2c(=O)cc(-c3ccc([N+](=O)[O-])cc3)[nH]c2c1-c1ccc(OC(F)(F)F)cc1 [Compound 101]	13 µM
O=c1cc(Cc2cccnc2)[nH]c2c(-c3ccc(Cl)cc3)c(C(F)(F)F)nn12 [Compound 102]	14 µM
Cc1nn2c(=O)cc(C3CCCCC3)[nH]c2c1-c1ccc(Cl)cc1 [Compound 103]	14 µM
O=c1cc(-c2ccc([N+](=O)[O-])cc2)[nH]c2c(-c3ccc(Cl)cc3)c(C3CC3)nn12 [Compound 104]	14 µM
Cc1nn2c(=O)cc(C3CCCC3)[nH]c2c1-c1ccc(Cl)cc1 [Compound 106]	16 µM
O=C(O)c1ccc(-c2cc(=O)n3nc(C4CC4)c(-c4ccc(Cl)cc4)c3[nH]2)cc1 [Compound 107]	16 µM
N#Cc1ccc(-c2cc(=O)c3nc(C4CC4)c(-c4ccc(Cl)cc4)n3[nH]2)cc1 [Compound 108]	16 µM
Cc1nn2c(=O)cc(-c3ccc([N+](=O)[O-])cc3)[nH]c2c1C1CCCC1 [Compound 110]	19 µM
O=C(Nc1cccc(-c2cc(=O)n3nc(C(F)(F)F)c(-c4ccc(Cl)cc4)c3[nH]2)c1)c1ccccc1 [Compound 111]	20 µM
N#Cc1ccc(-c2cc(=O)n3nc(C4CCOCC4)c(-c4ccc(Cl)cc4)c3[nH]2)cc1 [Compound 112]	20 µM
CCC(C)(C)C1CCc2c(sc3c2C(=O)NC(c2cc(OC)c(O)c([N+](=O)[O-])c2)N3)C1 (centres unmarked) [Compound 113]	0.56 µM
N#Cc1c(=O)n(-c2ccc(Cl)cc2)nc2c(=O)n(N)c(-c3ccccc3Cl)cc12 [Compound 114]	1.1 µM
O=C(Nc1cc(Cl)c(-c2cccc3cccnc23)c(Cl)c1)c1cc(Cl)cc(Br)c1O [Compound 119]	2.1 µM
O=c1nc(/C=C/c2ccc(-c3cc(Cl)cc(Cl)c3)o2)cc(C(F)(F)F)[nH]1 [Compound 120]	3.4 µM
O=C1NC(=S)S/C1=C/c1ccc(N2N=C(c3ccccc3)CC2c2ccccc2)cc1 (centres unmarked) [Compound 121]	3.7 µM
Nc1scc2c(-c3nnc(Nc4ccccc4)s3)nn(-c3ccc([N+](=O)[O-])cc3)c(=O)c12 [Compound 123]	5.1 µM
O=C1NC(=O)c2ccccc2/C1=C/c1cnn(Cc2ccccc2)c1 [Compound 124]	5.4 µM
COc1ccc(C(=O)Nc2cccc(/C=C3\C(=O)NC(=O)c4ccccc43)c2)cc1 [Compound 125]	6.5 µM

Same assay, conditions: 200 nM Arf6 assay; read-out: IC50 (μM) 200 nM Arf6

SMILES	IC50
COc1ccc(Cc2nn3c(=O)cc(-c4ccc([N+](=O)[O-])cc4)[nH]c3c2-c2ccccc2)cc1 [Compound 64]	3.6 µM
NC(=O)c1ccc(-c2cc(=O)n3nc(Cc4ccccc4)c(-c4ccc(Cl)cc4)c3[nH]2)cc1 [Compound 66]	2.8 µM
O=c1cc(-c2ccc([N+](=O)[O-])cc2)[nH]c2c(-c3ccccc3)c(C(F)(F)F)nn12 [Compound 72]	3.8 µM
COc1ccc(-c2cc(=O)n3nc(Cc4ccccc4)c(-c4ccc(Cl)cc4)c3[nH]2)cc1 [Compound 83]	6.2 µM
O=c1cc(Cc2ccccc2)[nH]c2c(-c3ccccc3)c(-c3ccccc3)nn12 [Compound 89]	7 µM
O=c1cc(-c2ccccc2)[nH]c2c(-c3ccccc3)c(Cc3ccccc3)nn12 [Compound 95]	9.4 µM
O=c1cc(Cc2ccccc2)[nH]c2c(-c3ccc(Cl)cc3)c(Cc3ccccc3)nn12 [Compound 99]	11 µM
O=[N+]([O-])c1ccc(C2=CC(O)n3nc(-c4cccc(Cl)c4)cc3N2)cc1 (centres unmarked) [Compound 100]	10 µM
O=c1cc(Cc2cccnc2)[nH]c2c(-c3ccc(Cl)cc3)c(C(F)(F)F)nn12 [Compound 102]	17 µM
Cc1nn2c(=O)cc(-c3ccc(Cl)cc3)[nH]c2c1-c1ccc(F)cc1 [Compound 105]	15 µM
COc1ccc(-c2c(C)nn3c(=O)cc(-c4ccc([N+](=O)[O-])cc4)[nH]c23)cc1 [Compound 109]	17 µM
Cc1cccc(N2C(=O)/C(=C/c3cc([N+](=O)[O-])cc(Br)c3O)SC2=S)c1 [Compound 115]	1.1 µM
CCOc1ccc(-c2nn(-c3ccccc3)cc2/C=C2\SC(=S)N(CCC(=O)O)C2=O)cc1C [Compound 116]	1.4 µM
N#Cc1c(SCc2cc(=O)[nH]c(=O)[nH]2)nc2c(c1-c1ccccc1)CC/C2=C\c1ccccc1 [Compound 117]	1.5 µM
Cc1cccc(-n2c(/C=C/c3cccnc3)nc3ccccc3c2=O)c1 [Compound 122]	4.7 µM

Same assay, conditions: IC50 (μM) 200 nM Arf6, 200 nM Arf6 assay

SMILES	IC50
O=C1NC(=S)N(c2cccc(Cl)c2)C(=O)/C1=C/c1cccn1-c1ccc(Cl)cc1 [Compound 118]	1.8 µM
